Experimental data from ChEMBL document CHEMBL3885881, “DrugMatrix”.

Organism: Rattus norvegicus
Experiment: DrugMatrix - Regimen: Daily Repeat
Type: toxicity, organism-based, Sprague-Dawley
Design: regimen Daily Repeat, gender Male, age 6-8 weeks
Conditions: in vivo, po, route oral GAVAGE, […]; for ABSOLUTE BASOPHIL / ABSOLUTE EOSINOPHIL / ABSOLUTE LYMPHOCYTE / ABSOLUTE MONOCYTE / ABSOLUTE SEGMENTED NEUTROPHIL / BASOPHIL / EOSINOPHIL / ERYTHROCYTE COUNT / HEMATOCRIT / HEMOGLOBIN / LEUKOCYTE COUNT / LYMPHOCYTE / MEAN CORPUSCULAR HEMOGLOBIN / MEAN CORPUSCULAR HEMOGLOBIN CONCENTRATION / MEAN CORPUSCULAR VOLUME / MONOCYTE / NEUTROPHIL / NUCLEATED RED BLOOD CELLS / PLATELET COUNT: tissue Blood; for ALANINE AMINOTRANSFERASE / ALBUMIN / ALKALINE PHOSPHATASE / ASPARTATE AMINOTRANSFERASE / BLOOD UREA NITROGEN / CARBON DIOXIDE / CHLORIDE / CHOLESTEROL / CREATINE PHOSPHOKINASE / CREATININE / GLUCOSE / LACTATE DEHYDROGENASE / LIPASE / PHOSPHORUS / POTASSIUM / SODIUM / TOTAL BILIRUBIN / TOTAL PROTEIN / URIC ACID: tissue Plasma
[1] = 10 mg/kg, 72 h, dose level Low, time 3 day
[2] = 10 mg/kg, 120 h, dose level Low, time 5 day
[3] = 25 mg/kg, 72 h, dose level High, time 3 day
[4] = 25 mg/kg, 120 h, dose level High, time 5 day

Sc1ncnc2nc[nH]c12 [MERCAPTOPURINE ANHYDROUS]
ABSOLUTE BASOPHIL [1]: 0 CELLS/uL | ABSOLUTE EOSINOPHIL [1]: 96.67 CELLS/uL | ABSOLUTE LYMPHOCYTE [1]: 10655 CELLS/uL | ABSOLUTE MONOCYTE [1]: 48.33 CELLS/uL | ABSOLUTE SEGMENTED NEUTROPHIL [1]: 1066.67 CELLS/uL | BASOPHIL [1]: 0% | EOSINOPHIL [1]: 0.67% | ERYTHROCYTE COUNT [1]: 5.09 x10E6/uL | HEMATOCRIT [1]: 31.73% | HEMOGLOBIN [1]: 12.87 G/DL | LEUKOCYTE COUNT [1]: 11.87 x10E3/uL | LYMPHOCYTE [1]: 90.33% | MEAN CORPUSCULAR HEMOGLOBIN [1]: 25.3 pg | MEAN CORPUSCULAR HEMOGLOBIN CONCENTRATION [1]: 40.6 G/DL | MEAN CORPUSCULAR VOLUME [1]: 62.4 fL | MONOCYTE [1]: 0.33% | NEUTROPHIL [1]: 8.67% | NUCLEATED RED BLOOD CELLS [1]: 0 /100WBC | PLATELET COUNT [1]: 1148.67 x10E3/uL | ALANINE AMINOTRANSFERASE [1]: 66.33 u/L | ALBUMIN [1]: 3.9 G/DL | ALKALINE PHOSPHATASE [1]: 364.67 u/L | ASPARTATE AMINOTRANSFERASE [1]: 83 u/L | BLOOD UREA NITROGEN [1]: 13 mg/dL | CARBON DIOXIDE [1]: 30.33 mmol/L | CHLORIDE [1]: 99 MEQ/L | CHOLESTEROL [1]: 73.67 mg/dL | CREATINE PHOSPHOKINASE [1]: 175.33 u/L | CREATININE [1]: 0.15 mg/dL | GLUCOSE [1]: 164.33 mg/dL | LACTATE DEHYDROGENASE [1]: 112.33 u/L | LIPASE [1]: 11.33 u/L | PHOSPHORUS [1]: 11.03 mg/dL | POTASSIUM [1]: 6.32 MEQ/L | SODIUM [1]: 142.6 MEQ/L | TOTAL BILIRUBIN [1]: 0.2 mg/dL | TOTAL PROTEIN [1]: 5.6 G/DL | URIC ACID [1]: 1.4 mg/dL | ABSOLUTE BASOPHIL [2]: 0 CELLS/uL | ABSOLUTE EOSINOPHIL [2]: 128 CELLS/uL | ABSOLUTE LYMPHOCYTE [2]: 12203 CELLS/uL | ABSOLUTE MONOCYTE [2]: 203 CELLS/uL | ABSOLUTE SEGMENTED NEUTROPHIL [2]: 1366 CELLS/uL | BASOPHIL [2]: 0% | EOSINOPHIL [2]: 0.67% | ERYTHROCYTE COUNT [2]: 5.76 x10E6/uL | HEMATOCRIT [2]: 36.7% | HEMOGLOBIN [2]: 14.3 G/DL | LEUKOCYTE COUNT [2]: 13.9 x10E3/uL | LYMPHOCYTE [2]: 88.67% | MEAN CORPUSCULAR HEMOGLOBIN [2]: 24.83 pg | MEAN CORPUSCULAR HEMOGLOBIN CONCENTRATION [2]: 38.97 G/DL | MEAN CORPUSCULAR VOLUME [2]: 63.73 fL | MONOCYTE [2]: 1.33% | NEUTROPHIL [2]: 9.33% | NUCLEATED RED BLOOD CELLS [2]: 0 /100WBC | PLATELET COUNT [2]: 1127 x10E3/uL | ALANINE AMINOTRANSFERASE [2]: 61 u/L | ALBUMIN [2]: 4.33 G/DL | ALKALINE PHOSPHATASE [2]: 384.33 u/L | ASPARTATE AMINOTRANSFERASE [2]: 75 u/L | BLOOD UREA NITROGEN [2]: 15 mg/dL | CARBON DIOXIDE [2]: 29.33 mmol/L | CHLORIDE [2]: 100.33 MEQ/L | CHOLESTEROL [2]: 73.67 mg/dL | CREATINE PHOSPHOKINASE [2]: 274.33 u/L | CREATININE [2]: 0.22 mg/dL | GLUCOSE [2]: 153.67 mg/dL | LACTATE DEHYDROGENASE [2]: 111 u/L | LIPASE [2]: 12.67 u/L | PHOSPHORUS [2]: 10.1 mg/dL | POTASSIUM [2]: 6.41 MEQ/L | SODIUM [2]: 142.27 MEQ/L | TOTAL BILIRUBIN [2]: 0.17 mg/dL | TOTAL PROTEIN [2]: 5.97 G/DL | URIC ACID [2]: 1.13 mg/dL | ABSOLUTE BASOPHIL [3]: 0 CELLS/uL | ABSOLUTE EOSINOPHIL [3]: 0 CELLS/uL | ABSOLUTE LYMPHOCYTE [3]: 6679.67 CELLS/uL | ABSOLUTE MONOCYTE [3]: 205.33 CELLS/uL | ABSOLUTE SEGMENTED NEUTROPHIL [3]: 481.67 CELLS/uL | BASOPHIL [3]: 0% | EOSINOPHIL [3]: 0% | ERYTHROCYTE COUNT [3]: 6.41 x10E6/uL | HEMATOCRIT [3]: 40.73% | HEMOGLOBIN [3]: 15.47 G/DL | LEUKOCYTE COUNT [3]: 7.37 x10E3/uL | LYMPHOCYTE [3]: 91% | MEAN CORPUSCULAR HEMOGLOBIN [3]: 24.1 pg | MEAN CORPUSCULAR HEMOGLOBIN CONCENTRATION [3]: 38 G/DL | MEAN CORPUSCULAR VOLUME [3]: 63.4 fL | MONOCYTE [3]: 2.67% | NEUTROPHIL [3]: 6.33% | NUCLEATED RED BLOOD CELLS [3]: 0.33 /100WBC | PLATELET COUNT [3]: 972 x10E3/uL | ALANINE AMINOTRANSFERASE [3]: 61.67 u/L | ALBUMIN [3]: 4.17 G/DL | ALKALINE PHOSPHATASE [3]: 420.33 u/L | ASPARTATE AMINOTRANSFERASE [3]: 105.67 u/L | BLOOD UREA NITROGEN [3]: 12 mg/dL | CARBON DIOXIDE [3]: 28 mmol/L | CHLORIDE [3]: 99.33 MEQ/L | CHOLESTEROL [3]: 77.33 mg/dL | CREATINE PHOSPHOKINASE [3]: 602.33 u/L | CREATININE [3]: 0.16 mg/dL | GLUCOSE [3]: 163 mg/dL | LACTATE DEHYDROGENASE [3]: 320 u/L | LIPASE [3]: 13 u/L | PHOSPHORUS [3]: 11.97 mg/dL | POTASSIUM [3]: 6.85 MEQ/L | SODIUM [3]: 141.03 MEQ/L | TOTAL BILIRUBIN [3]: 0.2 mg/dL | TOTAL PROTEIN [3]: 5.8 G/DL | URIC ACID [3]: 1.57 mg/dL | ABSOLUTE BASOPHIL [4]: 0 CELLS/uL | ABSOLUTE EOSINOPHIL [4]: 80.67 CELLS/uL | ABSOLUTE LYMPHOCYTE [4]: 12020.67 CELLS/uL | ABSOLUTE MONOCYTE [4]: 204.67 CELLS/uL | ABSOLUTE SEGMENTED NEUTROPHIL [4]: 927.33 CELLS/uL | BASOPHIL [4]: 0% | EOSINOPHIL [4]: 0.67% | ERYTHROCYTE COUNT [4]: 5.62 x10E6/uL | HEMATOCRIT [4]: 34.93% | HEMOGLOBIN [4]: 13.6 G/DL | LEUKOCYTE COUNT [4]: 13.23 x10E3/uL | LYMPHOCYTE [4]: 91% | MEAN CORPUSCULAR HEMOGLOBIN [4]: 24.33 pg | MEAN CORPUSCULAR HEMOGLOBIN CONCENTRATION [4]: 39 G/DL | MEAN CORPUSCULAR VOLUME [4]: 62.3 fL | MONOCYTE [4]: 1.33% | NEUTROPHIL [4]: 7% | NUCLEATED RED BLOOD CELLS [4]: 0 /100WBC | PLATELET COUNT [4]: 1431.67 x10E3/uL | ALANINE AMINOTRANSFERASE [4]: 58 u/L | ALBUMIN [4]: 4.4 G/DL | ALKALINE PHOSPHATASE [4]: 341 u/L | ASPARTATE AMINOTRANSFERASE [4]: 91.33 u/L | BLOOD UREA NITROGEN [4]: 10.67 mg/dL | CARBON DIOXIDE [4]: 25 mmol/L | CHLORIDE [4]: 100.33 MEQ/L | CHOLESTEROL [4]: 73 mg/dL | CREATINE PHOSPHOKINASE [4]: 601.67 u/L | CREATININE [4]: 0.13 mg/dL | GLUCOSE [4]: 164 mg/dL | LACTATE DEHYDROGENASE [4]: 169.67 u/L | LIPASE [4]: 12.33 u/L | PHOSPHORUS [4]: 11.07 mg/dL | POTASSIUM [4]: 7.18 MEQ/L | SODIUM [4]: 142.8 MEQ/L | TOTAL BILIRUBIN [4]: 0.17 mg/dL | TOTAL PROTEIN [4]: 6.07 G/DL | URIC ACID [4]: 1.5 mg/dL
